# Laboratory results published in ChEMBL document CHEMBL1155237, “Selective inhibitors of the mutant B-Raf pathway: discovery of a potent and orally bioavailable aminoisoquinoline” (J Med Chem, 2009).
# pIC50: −log10 of the molar value.
# Assays:
# [1] = target: 5'-AMP-activated protein kinase catalytic subunit alpha-2 (Homo sapiens) (UniProt P54646); assay: Inhibition of AMPKalpha2 assessed as enzyme activity at 1 uM relative to untreated control; design: scale not given: the % may be the effect or the level left
# [2] = target: Mitogen-activated protein kinase 11 (Homo sapiens) (UniProt Q15759); assay: Inhibition of p38beta assessed as enzyme activity at 1 uM relative to untreated control; design: scale not given: the % may be the effect or the level left
# [3] = target: Vascular endothelial growth factor receptor 1 (Homo sapiens) (UniProt P17948); assay: Inhibition of FLT1 assessed as enzyme activity at 1 uM relative to untreated control; design: scale not given: the % may be the effect or the level left
# [4] = tested on: Tyrosine-protein kinase ABL1 (Homo sapiens), P00519 [F317L]; assay: Inhibition of ABL1 F317L mutant assessed as enzyme activity at 1 uM relative to untreated control; design: scale not given: the % may be the effect or the level left
# [5] = target: Serine/threonine-protein kinase tousled-like 2 (Homo sapiens) (UniProt Q86UE8); assay: Inhibition of TLK2 assessed as enzyme activity at 1 uM relative to untreated control; design: scale not given: the % may be the effect or the level left
# [6] = target: Angiopoietin-1 receptor (Homo sapiens, UniProt Q02763); assay: Inhibition of Tie2
# [7] = target: MAP/microtubule affinity-regulating kinase 4 (Homo sapiens) (UniProt Q96L34); assay: Inhibition of MARK4 assessed as enzyme activity at 1 uM relative to untreated control; design: scale not given: the % may be the effect or the level left
# [8] = target: Tyrosine-protein kinase receptor Tie-1 (Homo sapiens) (UniProt P35590); assay: Inhibition of TIE1 assessed as enzyme activity at 1 uM relative to untreated control; design: scale not given: the % may be the effect or the level left
# [9] = target: Serine/threonine-protein kinase Nek5 (Homo sapiens) (UniProt Q6P3R8); assay: Inhibition of NEK5 assessed as enzyme activity at 1 uM relative to untreated control; design: scale not given: the % may be the effect or the level left
# [10] = target: Rho-associated protein kinase 2 (Homo sapiens) (UniProt O75116); assay: Inhibition of ROCK2 assessed as enzyme activity at 1 uM relative to untreated control; design: scale not given: the % may be the effect or the level left
# [11] = target: 3-phosphoinositide-dependent protein kinase 1 (Homo sapiens) (UniProt O15530); assay: Inhibition of PDPK1 assessed as enzyme activity at 1 uM relative to untreated control; design: scale not given: the % may be the effect or the level left
# [12] = target: Death-associated protein kinase 2 (Homo sapiens) (UniProt Q9UIK4); assay: Inhibition of DAPK2 assessed as enzyme activity at 1 uM relative to untreated control; design: scale not given: the % may be the effect or the level left
# [13] = target: Epidermal growth factor receptor (Homo sapiens) (UniProt P04626+P00533+Q15303+P21860); assay: Inhibition of EGFR E746-A750del mutant assessed as enzyme activity at 1 uM relative to untreated control; format: protein assay; design: scale not given: the % may be the effect or the level left
# [14] = target: Dual specificity mitogen-activated protein kinase kinase 3 (Homo sapiens) (UniProt P46734); assay: Inhibition of MEK3 assessed as enzyme activity at 1 uM relative to untreated control; design: scale not given: the % may be the effect or the level left
# [15] = target: SRSF protein kinase 3 (Homo sapiens) (UniProt Q9UPE1); assay: Inhibition of SRPK3 assessed as enzyme activity at 1 uM relative to untreated control; design: scale not given: the % may be the effect or the level left
# [16] = target: Serine/threonine-protein kinase TAO3 (Homo sapiens) (UniProt Q9H2K8); assay: Inhibition of TAOK3 assessed as enzyme activity at 1 uM relative to untreated control; design: scale not given: the % may be the effect or the level left
# [17] = tested on: Epidermal growth factor receptor (Homo sapiens), P00533 [L858R]; assay: Inhibition of EGFR L858R mutant assessed as enzyme activity at 1 uM relative to untreated control; format: protein assay; design: scale not given: the % may be the effect or the level left
# [18] = target: Dual specificity mitogen-activated protein kinase kinase 1 (Homo sapiens) (UniProt Q02750); assay: Inhibition of MEK1 assessed as enzyme activity at 1 uM relative to untreated control; design: scale not given: the % may be the effect or the level left
# [19] = target: Casein kinase I isoform gamma-2 (Homo sapiens) (UniProt P78368); assay: Inhibition of CSNK1G2 assessed as enzyme activity at 1 uM relative to untreated control; design: scale not given: the % may be the effect or the level left
# [20] = target: Calcium/calmodulin-dependent protein kinase type II subunit alpha (Homo sapiens) (UniProt Q9UQM7); assay: Inhibition of CAMK2A assessed as enzyme activity at 1 uM relative to untreated control; design: scale not given: the % may be the effect or the level left
# [21] = target: Aurora kinase B (Homo sapiens) (UniProt Q96GD4); assay: Inhibition of AURKB assessed as enzyme activity at 1 uM relative to untreated control; design: scale not given: the % may be the effect or the level left
# [22] = target: Ephrin type-A receptor 7 (Homo sapiens) (UniProt Q15375); assay: Inhibition of EPHA7 assessed as enzyme activity at 1 uM relative to untreated control; design: scale not given: the % may be the effect or the level left
# [23] = target: Ephrin type-A receptor 5 (Homo sapiens) (UniProt P54756); assay: Inhibition of EPHA5 assessed as enzyme activity at 1 uM relative to untreated control; design: scale not given: the % may be the effect or the level left
# [24] = target: RAC-beta serine/threonine-protein kinase (Homo sapiens) (UniProt P31751); assay: Inhibition of AKT2 assessed as enzyme activity at 1 uM relative to untreated control; design: scale not given: the % may be the effect or the level left
# [25] = target: STE20-like serine/threonine-protein kinase (Homo sapiens) (UniProt Q9H2G2); assay: Inhibition of SLK assessed as enzyme activity at 1 uM relative to untreated control; design: scale not given: the % may be the effect or the level left
# [26] = target: Inhibitor of nuclear factor kappa-B kinase subunit alpha (Homo sapiens) (UniProt O15111); assay: Inhibition of IKK-alpha assessed as enzyme activity at 1 uM relative to untreated control; design: scale not given: the % may be the effect or the level left
# [27] = target: Serine/threonine-protein kinase MARK1 (Homo sapiens) (UniProt Q9P0L2); assay: Inhibition of MARK1 assessed as enzyme activity at 1 uM relative to untreated control; design: scale not given: the % may be the effect or the level left
# [28] = target: Citron Rho-interacting kinase (Homo sapiens) (UniProt O14578); assay: Inhibition of CIT assessed as enzyme activity at 1 uM relative to untreated control; design: scale not given: the % may be the effect or the level left
# [29] = tested on: A-375; assay: Antitumor activity against human A375 SQ2 cells xenografted in CD1 mouse assessed as inhibition of tumor growth at 2 mg/kg, po qd for 14 days; format: functional; details: A375-SQ2, 336 h
# [30] = target: Activin receptor type-2A (Homo sapiens) (UniProt P27037); assay: Inhibition of ACVR2A assessed as enzyme activity at 1 uM relative to untreated control; design: scale not given: the % may be the effect or the level left
# [31] = tested on: A-375; assay: Antitumor activity against human A375 SQ2 cells xenografted in CD1 mouse assessed as inhibition of tumor growth at 1 mg/kg, po qd for 14 days; format: functional; details: A-375, 336 h
# [32] = target: Serine/threonine-protein kinase 16 (Homo sapiens) (UniProt O75716); assay: Inhibition of STK16 assessed as enzyme activity at 1 uM relative to untreated control; design: scale not given: the % may be the effect or the level left
# [33] = target: RAC-alpha serine/threonine-protein kinase (Homo sapiens) (UniProt P31749); assay: Inhibition of AKT1 assessed as enzyme activity at 1 uM relative to untreated control; design: scale not given: the % may be the effect or the level left
# [34] = target: Serine/threonine-protein kinase Nek2 (Homo sapiens) (UniProt P51955); assay: Inhibition of NEK2 assessed as enzyme activity at 1 uM relative to untreated control; design: scale not given: the % may be the effect or the level left
# [35] = target: NUAK family SNF1-like kinase 1 (Homo sapiens) (UniProt O60285); assay: Inhibition of ARK5 assessed as enzyme activity at 1 uM relative to untreated control; design: scale not given: the % may be the effect or the level left
# [36] = target: Cyclin-dependent kinase 11A (Homo sapiens) (UniProt Q9UQ88); assay: Inhibition of CDC2L2 assessed as enzyme activity at 1 uM relative to untreated control; design: scale not given: the % may be the effect or the level left
# [37] = target: Tyrosine-protein kinase JAK3 (Homo sapiens) (UniProt P52333); assay: Inhibition of JAK3 kinase domain 2 assessed as enzyme activity at 1 uM relative to untreated control; design: scale not given: the % may be the effect or the level left
# Chain of Serine/threonine-protein kinase tousled-like 2 (Homo sapiens) (Q86UE8 whole entry, looked up): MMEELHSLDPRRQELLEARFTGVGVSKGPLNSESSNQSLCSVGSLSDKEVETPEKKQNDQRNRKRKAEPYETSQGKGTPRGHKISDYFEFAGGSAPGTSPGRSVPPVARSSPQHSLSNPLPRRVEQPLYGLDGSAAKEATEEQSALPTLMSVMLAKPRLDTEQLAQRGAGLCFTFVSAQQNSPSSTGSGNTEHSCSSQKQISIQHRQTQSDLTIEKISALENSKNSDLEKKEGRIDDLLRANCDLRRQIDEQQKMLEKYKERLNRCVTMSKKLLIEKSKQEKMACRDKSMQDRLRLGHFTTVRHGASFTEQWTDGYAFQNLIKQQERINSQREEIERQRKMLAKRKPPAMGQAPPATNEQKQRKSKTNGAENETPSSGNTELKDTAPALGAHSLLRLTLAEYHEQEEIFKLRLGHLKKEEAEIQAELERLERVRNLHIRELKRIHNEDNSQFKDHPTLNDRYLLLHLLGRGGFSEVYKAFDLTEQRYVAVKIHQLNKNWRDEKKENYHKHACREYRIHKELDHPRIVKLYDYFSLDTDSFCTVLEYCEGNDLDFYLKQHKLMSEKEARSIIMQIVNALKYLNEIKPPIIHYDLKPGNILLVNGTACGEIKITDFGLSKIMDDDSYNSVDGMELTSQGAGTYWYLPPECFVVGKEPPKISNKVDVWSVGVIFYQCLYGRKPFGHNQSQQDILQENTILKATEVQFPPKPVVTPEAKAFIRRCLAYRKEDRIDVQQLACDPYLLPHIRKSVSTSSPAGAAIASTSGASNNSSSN
# Chain of Dual specificity mitogen-activated protein kinase kinase 1 (Homo sapiens) (Q02750 whole entry, canonical isoform): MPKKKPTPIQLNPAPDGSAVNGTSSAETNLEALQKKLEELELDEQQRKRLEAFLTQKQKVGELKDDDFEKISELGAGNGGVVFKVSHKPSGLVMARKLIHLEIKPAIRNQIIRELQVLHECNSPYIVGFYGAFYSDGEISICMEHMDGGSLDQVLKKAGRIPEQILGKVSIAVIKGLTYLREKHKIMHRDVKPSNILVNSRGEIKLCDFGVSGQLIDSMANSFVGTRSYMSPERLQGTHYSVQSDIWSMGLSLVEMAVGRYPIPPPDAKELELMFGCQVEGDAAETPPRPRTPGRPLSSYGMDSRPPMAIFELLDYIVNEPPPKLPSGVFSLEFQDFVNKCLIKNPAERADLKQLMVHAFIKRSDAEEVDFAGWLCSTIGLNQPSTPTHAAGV
# Chain of Aurora kinase B (Homo sapiens) (Q96GD4 whole entry): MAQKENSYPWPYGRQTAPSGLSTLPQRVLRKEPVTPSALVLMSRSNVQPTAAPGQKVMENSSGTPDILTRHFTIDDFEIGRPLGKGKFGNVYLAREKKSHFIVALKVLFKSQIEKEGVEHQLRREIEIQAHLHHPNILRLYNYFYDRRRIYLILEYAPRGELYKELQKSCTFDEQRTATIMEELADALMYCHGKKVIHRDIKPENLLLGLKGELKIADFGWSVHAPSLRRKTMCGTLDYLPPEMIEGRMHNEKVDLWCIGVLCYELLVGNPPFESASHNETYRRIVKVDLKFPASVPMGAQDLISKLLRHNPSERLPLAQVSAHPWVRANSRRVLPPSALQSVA
# Chain of Citron Rho-interacting kinase (Homo sapiens) (O14578 whole entry): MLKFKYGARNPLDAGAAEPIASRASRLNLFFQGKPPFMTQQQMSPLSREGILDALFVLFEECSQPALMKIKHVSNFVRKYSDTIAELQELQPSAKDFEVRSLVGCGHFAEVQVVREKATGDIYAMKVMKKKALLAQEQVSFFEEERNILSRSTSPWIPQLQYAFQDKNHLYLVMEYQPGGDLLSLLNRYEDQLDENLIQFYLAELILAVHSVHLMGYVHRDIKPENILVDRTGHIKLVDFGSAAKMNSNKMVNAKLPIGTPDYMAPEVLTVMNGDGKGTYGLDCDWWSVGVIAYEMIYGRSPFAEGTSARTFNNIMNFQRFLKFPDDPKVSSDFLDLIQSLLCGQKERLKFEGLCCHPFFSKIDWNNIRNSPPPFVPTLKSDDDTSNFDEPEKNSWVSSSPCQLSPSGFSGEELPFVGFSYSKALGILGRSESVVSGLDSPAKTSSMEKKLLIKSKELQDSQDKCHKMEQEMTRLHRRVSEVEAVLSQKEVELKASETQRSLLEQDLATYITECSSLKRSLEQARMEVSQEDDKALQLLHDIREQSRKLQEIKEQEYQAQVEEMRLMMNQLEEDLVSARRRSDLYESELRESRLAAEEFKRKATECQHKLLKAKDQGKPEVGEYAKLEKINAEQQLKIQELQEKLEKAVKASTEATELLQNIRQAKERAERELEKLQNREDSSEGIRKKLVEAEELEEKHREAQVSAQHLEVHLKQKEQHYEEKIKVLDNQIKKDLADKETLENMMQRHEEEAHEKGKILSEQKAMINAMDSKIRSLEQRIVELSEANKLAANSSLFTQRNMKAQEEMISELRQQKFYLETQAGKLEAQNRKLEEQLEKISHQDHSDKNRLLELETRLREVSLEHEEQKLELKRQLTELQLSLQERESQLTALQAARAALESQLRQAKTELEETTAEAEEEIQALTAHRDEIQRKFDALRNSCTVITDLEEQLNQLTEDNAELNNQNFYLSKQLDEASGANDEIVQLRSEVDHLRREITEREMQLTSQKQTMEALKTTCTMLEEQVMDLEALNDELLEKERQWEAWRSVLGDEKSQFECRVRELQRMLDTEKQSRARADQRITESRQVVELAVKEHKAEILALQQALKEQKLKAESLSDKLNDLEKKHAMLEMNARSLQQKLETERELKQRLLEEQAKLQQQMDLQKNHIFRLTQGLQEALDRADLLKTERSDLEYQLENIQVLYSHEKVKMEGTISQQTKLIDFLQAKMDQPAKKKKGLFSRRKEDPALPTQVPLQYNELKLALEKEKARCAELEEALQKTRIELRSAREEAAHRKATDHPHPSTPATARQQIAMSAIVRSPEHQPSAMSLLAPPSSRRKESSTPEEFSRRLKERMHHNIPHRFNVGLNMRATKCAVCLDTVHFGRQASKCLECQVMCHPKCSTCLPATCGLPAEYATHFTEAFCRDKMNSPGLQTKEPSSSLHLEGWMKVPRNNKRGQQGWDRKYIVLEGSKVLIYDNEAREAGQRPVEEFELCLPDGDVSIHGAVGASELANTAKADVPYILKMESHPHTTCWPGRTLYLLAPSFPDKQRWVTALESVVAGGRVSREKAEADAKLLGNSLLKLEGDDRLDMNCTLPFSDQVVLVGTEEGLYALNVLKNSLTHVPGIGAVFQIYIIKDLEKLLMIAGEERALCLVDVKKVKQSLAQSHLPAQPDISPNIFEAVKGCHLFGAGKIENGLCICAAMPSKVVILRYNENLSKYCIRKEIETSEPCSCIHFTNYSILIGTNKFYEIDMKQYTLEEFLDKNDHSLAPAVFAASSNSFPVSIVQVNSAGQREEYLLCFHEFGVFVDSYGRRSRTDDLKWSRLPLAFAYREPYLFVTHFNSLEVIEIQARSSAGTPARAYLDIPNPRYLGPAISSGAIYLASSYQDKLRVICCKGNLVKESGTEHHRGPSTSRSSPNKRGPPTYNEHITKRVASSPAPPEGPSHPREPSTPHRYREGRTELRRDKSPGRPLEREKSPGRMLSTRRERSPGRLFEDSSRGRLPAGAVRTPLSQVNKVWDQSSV
# Chain of NUAK family SNF1-like kinase 1 (Homo sapiens) (O60285 whole entry): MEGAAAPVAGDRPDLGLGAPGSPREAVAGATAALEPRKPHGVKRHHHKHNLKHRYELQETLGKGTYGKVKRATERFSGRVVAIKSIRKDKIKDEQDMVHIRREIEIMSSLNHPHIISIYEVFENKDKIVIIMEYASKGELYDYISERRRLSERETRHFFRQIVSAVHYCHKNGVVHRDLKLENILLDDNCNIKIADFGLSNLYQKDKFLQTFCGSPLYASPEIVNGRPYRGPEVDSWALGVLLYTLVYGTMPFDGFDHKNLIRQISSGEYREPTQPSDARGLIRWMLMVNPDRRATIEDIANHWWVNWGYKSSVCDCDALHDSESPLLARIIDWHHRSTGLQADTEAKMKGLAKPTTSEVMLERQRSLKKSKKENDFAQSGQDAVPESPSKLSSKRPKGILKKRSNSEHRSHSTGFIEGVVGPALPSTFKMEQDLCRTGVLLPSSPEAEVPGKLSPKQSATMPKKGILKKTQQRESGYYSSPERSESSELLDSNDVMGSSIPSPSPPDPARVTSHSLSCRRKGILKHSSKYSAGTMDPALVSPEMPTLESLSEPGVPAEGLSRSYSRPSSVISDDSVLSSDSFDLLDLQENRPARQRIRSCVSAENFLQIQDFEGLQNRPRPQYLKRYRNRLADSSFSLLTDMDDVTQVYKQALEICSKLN
# Chain of SRSF protein kinase 3 (Homo sapiens) (Q9UPE1 whole entry): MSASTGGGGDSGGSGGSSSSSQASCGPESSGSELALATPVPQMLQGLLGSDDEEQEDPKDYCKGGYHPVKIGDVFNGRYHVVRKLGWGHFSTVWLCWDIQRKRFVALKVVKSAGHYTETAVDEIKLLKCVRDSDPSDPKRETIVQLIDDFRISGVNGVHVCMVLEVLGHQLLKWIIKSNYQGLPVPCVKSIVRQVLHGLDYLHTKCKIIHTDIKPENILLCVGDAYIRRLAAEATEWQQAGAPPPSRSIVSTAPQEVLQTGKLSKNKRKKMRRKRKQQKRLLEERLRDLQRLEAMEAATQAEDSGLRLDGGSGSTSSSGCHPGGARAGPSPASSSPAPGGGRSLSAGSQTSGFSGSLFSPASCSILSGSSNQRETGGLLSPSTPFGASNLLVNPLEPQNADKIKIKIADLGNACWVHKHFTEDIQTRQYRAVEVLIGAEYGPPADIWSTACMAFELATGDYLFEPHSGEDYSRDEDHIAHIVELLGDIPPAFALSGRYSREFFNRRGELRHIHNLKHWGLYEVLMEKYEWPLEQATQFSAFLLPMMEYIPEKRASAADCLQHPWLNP
# Chain of Serine/threonine-protein kinase 16 (Homo sapiens) (O75716 whole entry): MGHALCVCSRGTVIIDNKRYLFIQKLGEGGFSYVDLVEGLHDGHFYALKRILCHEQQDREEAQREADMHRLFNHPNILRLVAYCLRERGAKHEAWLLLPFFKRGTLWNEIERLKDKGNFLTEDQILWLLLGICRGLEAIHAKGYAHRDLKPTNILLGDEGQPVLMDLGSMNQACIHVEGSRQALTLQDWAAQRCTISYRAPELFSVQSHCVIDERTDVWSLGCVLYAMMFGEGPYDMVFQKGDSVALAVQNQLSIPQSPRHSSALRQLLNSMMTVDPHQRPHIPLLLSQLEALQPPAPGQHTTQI
smiles,measurement,setting,value
Cc1ccc2c(Nc3ccc(Cl)cc3)nccc2c1Nc1ncccc1-c1ncnc2[nH]cnc12.Cl.Cl.Cl,Activity,[1],96%
same,Activity,[2],99%
same,Activity,[3],2.2%
same,Activity,[4],79%
same,Activity,[5],100%
same,pIC50,[6],6.92
same,Activity,[7],100%
same,Activity,[8],4.9%
same,Activity,[9],98%
same,Activity,[10],100%
same,Activity,[11],100%
same,Activity,[12],100%
same,Activity,[13],86%
same,Activity,[14],100%
same,Activity,[15],100%
same,Activity,[16],94%
same,Activity,[17],100%
same,Activity,[18],100%
same,Activity,[19],100%
same,Activity,[20],100%
same,Activity,[21],85%
same,Activity,[22],4.7%
same,Activity,[23],16%
same,Activity,[24],88%
same,Activity,[25],40%
same,Activity,[26],100%
same,Activity,[27],97%
same,Activity,[28],64%
same,inhibition in vivo at 2 mg/kg,[29],90%
same,Activity,[30],100%
same,inhibition in vivo at 1 mg/kg,[31],22%
same,Activity,[32],100%
same,Activity,[33],100%
same,Activity,[34],90%
same,Activity,[35],100%
same,Activity,[36],33%
same,Activity,[37],100%
